Test results taken from patent US20100035926A1, “PYRAZOLE DERIVATIVES AS NON-STEROIDAL GLUCOCORTICOID RECEPTOR LIGANDS” (priority 2006, published 2010).
Read-outs that look alike come from different tables or passages of the source.

Columns and labels:
glucocorticoid receptor = target: T1, glucocorticoid receptor (Homo sapiens, UniProt P04150); experiment: Glucocorticoid Receptor Binding Assay (fluorescence polarisation, displacement of Alexa 555 labelled dexamethasone derivative); settings: at least once in this assay; read-out: glucocorticoid binding pIC50 (converted)
T1 construct: a partially purified full length glucocorticoid receptor
T1 sequence (P04150 1-777): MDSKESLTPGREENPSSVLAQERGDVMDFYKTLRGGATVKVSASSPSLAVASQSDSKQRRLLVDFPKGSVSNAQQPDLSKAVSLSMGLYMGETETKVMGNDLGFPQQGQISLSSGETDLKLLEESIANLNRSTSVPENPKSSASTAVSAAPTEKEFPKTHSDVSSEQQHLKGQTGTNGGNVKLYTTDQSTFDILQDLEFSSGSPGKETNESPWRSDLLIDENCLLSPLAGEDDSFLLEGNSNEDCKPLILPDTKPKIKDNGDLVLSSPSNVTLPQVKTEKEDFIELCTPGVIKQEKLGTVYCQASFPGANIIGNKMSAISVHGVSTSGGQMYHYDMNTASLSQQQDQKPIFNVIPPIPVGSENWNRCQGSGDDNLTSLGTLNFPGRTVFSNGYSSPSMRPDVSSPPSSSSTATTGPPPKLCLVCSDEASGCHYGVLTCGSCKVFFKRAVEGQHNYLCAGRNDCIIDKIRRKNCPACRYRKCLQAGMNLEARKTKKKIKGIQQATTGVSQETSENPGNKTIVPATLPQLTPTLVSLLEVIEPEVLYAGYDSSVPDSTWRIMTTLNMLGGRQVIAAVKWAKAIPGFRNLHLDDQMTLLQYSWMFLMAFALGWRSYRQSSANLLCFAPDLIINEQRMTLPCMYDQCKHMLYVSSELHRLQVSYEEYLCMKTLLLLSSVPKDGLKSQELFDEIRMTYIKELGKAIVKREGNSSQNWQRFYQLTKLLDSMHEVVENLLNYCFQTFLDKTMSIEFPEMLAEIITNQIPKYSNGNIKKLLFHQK
Outline: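 Partially purified full-length GR incubated with test compound and fluorescent dexamethasone plus GR-stabilising buffer components, 2 hr at room temperature in the dark. Binding scored as displacement of tracer, read as decrease in fluorescence polarisation.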

GR [1] = target: T2, GR (Homo sapiens, UniProt P04150); experiment: GR Agonist Assay - MMTV Assay (A549 MMTV cells, renilla luciferase reporter); assay type: cell-based; settings: 6 h, agonists, read-out: average maximum asymptote in the MMTV agonist assay
T2 construct: endogenous in cells; host or cells: A549 (human lung carcinoma, ECACC No. 86012804), stably transfected with reporter plasmids only
T2 sequence (P04150 1-777): T1 sequence (P04150 1-777)
Outline: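 Stably transfected A549 MMTV cells carry a GR-driven luciferase reporter. Cells at 0.1×10^6/ml in DMEM with 10% FCS and 25 mM HEPES were added to wells containing compound. After detection reagent, plates were held about 15 mins at room temperature and luminescence was read.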

[2] = Assay for Brain Penetrance; assay type: in vivo; settings: brain and plasma, rat, single intravenous dose 1 mg/kg, read-out: brain to plasma ratio
Method: Each rat received a single intravenous dose at a level of 1 mg/kg. The dose was formulated in 10% DMSO/50% PEG200/40% sterile water. Terminal blood samples were taken at 5 or 15 mins after dosing, by cardiac puncture following anaesthesia with isofluorane. The brains were removed at the same time point.
The compounds were extracted from 20 μL plasma by protein precipitation using 120 μL acetonitrile containing an analogue compound as an internal standard. The filtered extracts were collected into a 96 well plate and were diluted with an equal volume of 10% acetonitrile containing 0.1% formic acid in water (v/v). The plate was then mixed on a plate shaker for at least 5 mins before analysis by LC-MS/MS against a calibration line prepared in control plasma.
Each brain was weighed, then homogenised in 3 ml acetonitrile:water (10:90v/v). The compounds were extracted from 200 μL of the resulting homogenate by protein precipitation using 600 μL acetonitrile containing an analogue compound as an internal standard. The extracts were centrifuged and 150 μl of each was filtered and transferred to a 96 well plate. The aliquot was diluted with 10% acetonitrile containing 0.1% formic acid in water (v/v). The plate was mixed on a plate shaker for at least 5 mins before analysis by LC-MS/MS against a calibration line prepared in control brain homogenate.

GR [3] = target: T2, GR; experiment: GR Functional Assay - NFκB Assay (A549 SPAP cells, TNFα stimulated); assay type: cell-based
Outline: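 Stably transfected A549 SPAP cells at 0.16×10^6/ml in DMEM with 10% FCS were added to compound and stimulated with TNFα to drive NFκB-dependent SPAP expression. After 1 hr equilibration at room temperature, SPAP was read colorimetrically with pNPP in diethanolamine buffer, pH 9.8.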

Progesterone Receptor = target: T3, Progesterone Receptor (Homo sapiens, UniProt P06401); experiment: Assay for Progesterone Receptor Agonist Activity (CV-1 cells, PRb-BacMam, MMTV-BacMam); assay type: cell-based; settings: at least once in this assay, read-out: progesterone receptor agonist pEC50 (converted)
T3 construct: expressed in transfected cells; host or cells: CV-1 cells transduced with PRb-BacMam and MMTV-BacMam
T3 sequence (P06401 1-933): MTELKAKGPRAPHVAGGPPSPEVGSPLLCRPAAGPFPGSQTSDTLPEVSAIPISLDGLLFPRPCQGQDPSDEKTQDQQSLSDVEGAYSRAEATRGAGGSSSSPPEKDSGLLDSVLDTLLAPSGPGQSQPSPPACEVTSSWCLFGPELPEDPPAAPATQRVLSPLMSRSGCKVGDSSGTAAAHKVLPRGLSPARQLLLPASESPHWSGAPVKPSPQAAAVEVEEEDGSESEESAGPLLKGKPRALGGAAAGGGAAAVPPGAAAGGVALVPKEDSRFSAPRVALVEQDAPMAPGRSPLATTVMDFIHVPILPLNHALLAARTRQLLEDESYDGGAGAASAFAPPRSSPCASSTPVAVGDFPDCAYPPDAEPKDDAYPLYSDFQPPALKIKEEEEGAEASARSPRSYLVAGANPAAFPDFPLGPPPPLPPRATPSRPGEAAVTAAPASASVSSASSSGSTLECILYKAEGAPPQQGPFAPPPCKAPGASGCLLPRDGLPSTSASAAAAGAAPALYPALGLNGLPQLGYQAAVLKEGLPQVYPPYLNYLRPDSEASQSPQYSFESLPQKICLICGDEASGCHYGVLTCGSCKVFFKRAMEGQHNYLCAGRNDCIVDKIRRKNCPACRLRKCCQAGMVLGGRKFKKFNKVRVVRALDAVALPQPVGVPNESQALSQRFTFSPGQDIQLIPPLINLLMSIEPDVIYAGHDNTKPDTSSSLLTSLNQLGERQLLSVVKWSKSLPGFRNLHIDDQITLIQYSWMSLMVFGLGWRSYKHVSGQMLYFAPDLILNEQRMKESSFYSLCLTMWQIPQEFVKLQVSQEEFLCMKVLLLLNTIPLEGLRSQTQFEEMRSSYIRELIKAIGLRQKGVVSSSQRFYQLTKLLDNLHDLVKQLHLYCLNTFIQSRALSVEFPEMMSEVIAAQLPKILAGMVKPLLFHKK
Method: A T225 flask of CV-1 cells at a density of 80% confluency was washed with PBS, detached from the flask using 0.25% trypsin and counted using a Sysmex KX-21N. Cells were diluted in DMEM containing 10% Hyclone, 2 mM […] and 1% Pen/Strep at 140 cells/μl and transduced with 10% PRb-BacMam and 10% MMTV-BacMam. […] of suspension cells were dispensed to each well of white Nunc 384-well plates, containing compounds at the required concentration. After 24 hr 10 μl of Steadylite were added to each well of the plates. Plates were incubated in the dark for 10 min before reading them on a Viewlux reader. Dose response curves were constructed from which pEC50 values were estimated.

IC50 (glucocorticoid receptor)	Emax (GR [1])	Kp at 5 min [2]	Emax (GR [3]; agonists, A549 SPAP cells, read-out: average maximum asymptote in the NFkB assay)	IC50 (GR [3]; at least once in the NFkB assay, A549 SPAP cells, read-out: pIC50 in the NFkB assay (converted))	IC50 (GR [3]; at least once, examples listed as agonists in NFkB and MMTV assays, read-out: potency pIC50 in the NFKB assay (converted))	EC50 (Progesterone Receptor)	SMILES
< 1 µM	≥ 40%	≥ 0.1	≥ 40%	< 1 µM	< 0.316 µM	–	CCN(CC(O)(CNC(=O)c1cnn(-c2ccc(F)c(F)c2)c1N)C(F)(F)F)C(=O)c1ccccc1 (racemic) [Example 24 (racemic), 5-amino-1-(3,4-difluorophenyl)-N-(2-{[ethyl(phenylcarbonyl)amino]methyl}-3,3,3-trifluoro-2-hydroxypropyl)-1H-pyrazole-4-carboxamide]
–	–	≥ 0.1	–	–	–	> 1 µM	CCN(CC(O)(CNC(=O)c1cnn(-c2ccc(F)cc2)c1N)C(F)(F)F)C(=O)c1ncccc1Cl (single isomer, unassigned) [Example 3 Enantiomer 1, N-[2-[({[5-Amino-1-(4-fluorophenyl)-1H-pyrazol-4-yl]carbonyl]amino)methyl]-3,3,3-trifluoro-2-hydroxypropyl}-3-chloro-N-ethyl-2-Pyridinecarboxamide]
